# In US8389565B2, “Glycosidase inhibitors and methods of synthesizing same” (Simon Fraser University, priority 2000, dated 2013):
# Structures can show the parent of a compound that is named as a salt.
# Target: Maltase Glucoamylase (MGA) (Homo sapiens, UniProt O43451)
# Assay: Inhibition of recombinant human maltase glucoamylase (MGA), maltose substrate, glucose oxidase readout
# Format: biochemical
# Conditions: for Ki: maltose substrate, 100 mM MES buffer pH 6.5, 37° C., read-out: Ki value against recombinant human maltase glucoamylase (MGA); for IC50: read-out: IC50 value against recombinant human MGA
# Description: Enzyme Activity Assay. Analysis of MGA inhibition was performed using maltose as the substrate, and measuring the release of glucose. Reactions were carried out in 100 mM MES buffer pH 6.5 at 37° C. for 15 min. The reaction was stopped by boiling for 3 min. 20 μL aliquots were taken and added to […] of glucose oxidase assay reagent (Sigma) in a 96-well plate. Reactions were developed for 1 hour and absorbance was measured at 450 nm to determine the amount of glucose produced by MGA activity in the reaction. One unit of activity is defined as the hydrolysis of one […] of maltose per minute. All reactions were performed in triplicate and absorbance measurements were averaged to give a final result.
# The program GraFit 4.0.14 was used to fit the data to the Michaelis-Menten equation and estimate the kinetic parameters, Km and Vmax, of the enzyme. Ki values for each inhibitor were determined by measuring the rate of maltose hydrolysis by MGA at varying inhibitor concentrations. Data were plotted in Lineweaver-Burk plots (1/rate vs. 1/[substrate]) and Ki values were determined by the equation Ki=Km[I]/(Vmax)m−Km, where “m” is the slope of the line. The Ki reported for each inhibitor was estimated by averaging the Ki values obtained from each of the different inhibitor concentrations.
# Chain of Maltase Glucoamylase (MGA) (O43451 87-954 limits assumed): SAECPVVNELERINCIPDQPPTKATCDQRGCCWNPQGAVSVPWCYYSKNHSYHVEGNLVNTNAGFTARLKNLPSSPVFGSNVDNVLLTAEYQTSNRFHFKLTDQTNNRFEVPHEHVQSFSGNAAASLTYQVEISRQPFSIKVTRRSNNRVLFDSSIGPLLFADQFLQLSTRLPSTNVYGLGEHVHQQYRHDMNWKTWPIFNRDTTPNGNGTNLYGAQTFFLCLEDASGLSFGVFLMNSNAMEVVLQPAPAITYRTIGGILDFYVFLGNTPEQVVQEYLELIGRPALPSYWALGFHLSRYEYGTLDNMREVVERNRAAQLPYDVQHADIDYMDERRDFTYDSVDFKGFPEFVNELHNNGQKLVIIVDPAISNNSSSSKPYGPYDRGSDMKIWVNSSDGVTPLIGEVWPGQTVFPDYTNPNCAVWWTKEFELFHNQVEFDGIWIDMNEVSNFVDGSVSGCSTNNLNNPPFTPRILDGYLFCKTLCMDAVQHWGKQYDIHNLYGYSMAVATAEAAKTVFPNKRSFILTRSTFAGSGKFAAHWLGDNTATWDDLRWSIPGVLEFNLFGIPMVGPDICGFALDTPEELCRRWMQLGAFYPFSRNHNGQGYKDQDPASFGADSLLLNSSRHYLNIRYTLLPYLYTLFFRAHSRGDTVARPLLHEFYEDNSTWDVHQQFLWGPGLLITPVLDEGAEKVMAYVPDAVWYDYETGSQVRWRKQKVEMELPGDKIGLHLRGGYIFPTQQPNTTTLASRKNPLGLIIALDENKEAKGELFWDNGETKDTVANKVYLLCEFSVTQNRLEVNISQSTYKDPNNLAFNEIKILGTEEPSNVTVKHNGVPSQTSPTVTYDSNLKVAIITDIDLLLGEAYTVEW
Structure (SMILES),inhibitory activity against recombinant human MGA (in words),also measured
"O=S(=O)([O-])O[C@@H](CO)[C@H](O)C[S@+]1C[C@@H](O)[C@@H](O)[C@H]1CO [Compound 233, 1,4-Dideoxy-1,4-[[(2S,3S)-2,4-dihydroxy-3-(sulfooxy)butyl]-(S)-episulfoniumylidene]-D-lyxitol Inner Salt]",not effective inhibitors,–
"O=S(=O)([O-])O[C@@H]([C@H](O)[C@@H](O)CO)[C@H](O)C[S@+]1C[C@@H](O)[C@H](O)[C@H]1CO [Compound 96, 1,4-Dideoxy-1,4-[[2S,3S,4R,5S-2,4,5,6-tetrahydroxy-3-(sulfooxy)hexyl]episufonium-ylidene]-D-arabinitol]",active,–
"O=S(=O)([O-])O[C@H]([C@H](O)[C@@H](O)CO)[C@H](O)C[S@+]1C[C@@H](O)[C@H](O)[C@H]1CO [Compound 95, 1,4-Dideoxy-1,4-[[2S,3R,4R,5S-2,4,5,6-tetrahydroxy-3-(sulfooxy)hexyl]episufonium-ylidene]-D-arabinitol]",active,–
"O=S(=O)([O-])O[C@@H]([C@H](O)CO)[C@H](O)C[S@+]1C[C@@H](O)[C@H](O)[C@H]1CO [Compound 97, 1,4-Dideoxy-1,4-[[2S,3S,4R-2,4,5-trihydroxy-3-(sulfooxy)pentyl]episufonium-ylidene]-D-arabinitol]",–,Ki: 0.17 µM
"O=S(=O)([O-])O[C@@H]([C@H](O)C[S@+]1C[C@@H](O)[C@H](O)[C@H]1CO)[C@@H](O)CO [Compound 94, 1,4-Dideoxy-1,4-[[2S,3R,4S-2,4,5-trihydroxy-3-(sulfooxy)pentyl]episufonium-ylidene]-D-arabinitol]",did not inhibit,–
"O=S(=O)([O-])O[C@@H](CO)[C@H](O)C[S@+]1C[C@H](O)[C@H](O)[C@H]1CO [Compound 234, 1,4-Dideoxy-1,4-[[(2S,3S)-2,4-dihydroxy-3-(sulfooxy)butyl]-(R)-episulfoniumylidene]-D-ribitol Inner Salt]",not effective inhibitors,–
"O=S(=O)(O)OC(C(O)CN1CC(O)C(O)C1CO)C(O)C(O)CO (single isomer, unassigned) [Compound 196]",–,Ki: 5 µM
"O=S(=O)([O-])OC(C(O)C[S+]1CC(O)C(O)C1CO)C(O)C(O)CO [Compound 192, 1,4-Dideoxy-1,4-[[(2R,3S,4R,5R)-2,4,5,6-tetrahydroxy-3-(sulfooxy)hexyl]-episulfoniumylidene]-D-arabinitol Inner Salt]",not active,–
"O=S(=O)(O)OC(C(O)CN1CC(O)C(O)C1CO)C(O)C(O)CO (single isomer, unassigned) [Compound 255]",–,IC50: 30 µM
"O=S(=O)(O)OC(C(O)CN1CC(O)C(O)C1CO)C(O)C(O)CO (single isomer, unassigned) [Compound 193]",–,Ki: 26 µM
"O=S(=O)(O)OC(C(O)CN1CC(O)C(O)C1CO)C(O)C(O)CO (single isomer, unassigned) [Compound 252]",–,IC50: 100 µM
